Data from US20260034112A1, “MULTI-CYCLIC IRAK1 AND IRAK4 INHIBITING COMPOUNDS AND USES THEREOF” (CHILDREN'S HOSPITAL MEDICAL CENTER, priority 2022, published 2026).
Like-named read-outs stand apart in the source and are kept apart here.

Assays:
[1] = system: MDS/AML cell lines and patient-derived samples; assay: Clonogenic assay (colony formation in methylcellulose); assay type: cell-based, human; conditions: for Inhibition of colony formation: MDSL, TF1, AML1714, AML1294, methylcellulose
[2] = system: NF-kB activity upon TLR2 stimulation with PAM3CSK4 in THP1-Blue NF-kB SEAP reporter cells; assay: THP1-Blue NF-kB SEAP reporter assay, TLR2 stimulation with PAM3CSK4; assay type: cell-based, human
[3] = Homo sapiens, THP-1, THP1 NF-kB reporter cells, read-out: IC50 vs. Pam3CSK4 (TLR2-mediated NF-kB activation)

IC50 [2, 3] [nM] | IC50 ([2]; Homo sapiens, THP-1, Table 1, unit nM, read-out: THP-1 NFkB PAM IC50) [nM] | IC50 ([2]; THP1 NF-kB reporter cells, read-out: IC50 vs. Pam3CSK4 (TLR2-mediated NF-kB activation)) [nM] | SMILES | Sensitivity of IRAK1KO MDS/AML cells (growth, colony formation) ([1]; IRAK1KO versus WT THP1 and MDSL cells) | Inhibition of colony formation [1] | Suppression of NF-kB signaling through TLR2 ([2]; THP1 NF-kB reporter cells, result in words) | LOG (PAM) ([2]; Table 1, log of PAM IC50)
500 | – | – | Cc1cc(-c2nc(C(=O)Nc3cc4oc(N5CCOCC5)nc4nc3N3CC[C@@H](O)C3)co2)ccn1 [CA-4948, emavusertib] | more sensitive | dose-dependent, yet incomplete, inhibition of colony formation | – | –
7.2 | 496 | 7 | CC[C@@H]1[C@H](F)C(=O)N[C@@H]1COc1nccc2cc(C(N)=O)c(OC)cc12 [PF-06650833, Zimlovisertib] | – | inhibition of colony formation by MDSL and TF1 cells but was less effective at suppressing the patient-derived AML samples | fully suppress | 2.70
